Tests used:
Type in all cases: cell-based
Bacillus subtilis = assay: Test for the anti-microbial action, colony count after plating; settings: 10^6 cells in 50 μl mixed 1:1 with solution, 2 minutes incubation, plated, 1-3 days at 37° C.
Experimental: (§1) Freshly grown cultures of the listed microorganisms were adjusted to a cell number of 10^6 in a 50 μl volume and mixed in a ratio of 1:1 with 50 μl of water, 70% ethanol or the three component system (100 mM ascorbic acid, 10 mM FeCl3 and 0.5% SDS). After an incubation time of 2 minutes the 100 μl samples containing the microorganisms were plated onto the respective growth media. After an incubation period of 1-3 days at 28° C. (Saccharomyces cerevisiae and Candida parapsilosis) or 37° C. (Escherichia coli and Bacillus subtilis) the number of grown colonies was determined.

Escherichia coli = assay: as above; settings: 10^6 cells in 50 μl mixed 1:1 with solution, 2 minutes incubation, plated, 1-3 days at 37° C.
Experimental: as §1

Saccharomyces cerevisiae = assay: as above; settings: 10^6 cells in 50 μl mixed 1:1 with solution, 2 minutes incubation, plated, 1-3 days at 28° C.
Experimental: as §1

[1] = test system: listed microorganisms (Escherichia coli, Bacillus subtilis, Saccharomyces cerevisiae, Candida parapsilosis); assay: Test for the anti-microbial action, summary for all listed microorganisms; settings: 10^6 cells mixed 1:1 with solution, 2 minutes incubation, plated, 1-3 days
Experimental: as §1

[2] = test system: recombinant Escherichia coli strain with an extra-chromosomal plasmid (YEp351); assay: Degradation of genomic DNA and extra-chromosomal genetic material inside microorganisms (FIG. 8, gel electrophoresis); settings: 5 μl E. coli suspension, lysozyme 5 minutes, then 5 μl solution for 5 minutes
Experimental: A recombinant Escherichia coli strain with an extra-chromosomal plasmid (YEp351) was grown over night in LB, amp medium. Aliquots of 5 μl from the E. coli suspension were treated with 5 μl lysozyme solution (1 mg/ml) for 5 minutes and subsequently incubated with 5 μl of the listed solutions (1-5) for additional 5 minutes. After addition of bromphenol blue the samples were loaded into the gel slots and separated by electrophoresis of the DNA molecules.
(M: Marker 1 Kb Ladder; C: Control with H2O; 1: 70% Ethanol; 2: 0.5% Bacillozid™; 3: 0.5% SDS; 4: 0.5% Na-Azide+0.5% SDS; 5: 100 mM vitamin C+10 mM FeCl3+0.5% SDS; C: Control: 5 μl sterile H2O)

Row | SMILES | number of grown colonies (Bacillus subtilis) | number of grown colonies (Escherichia coli) | number of grown colonies (Saccharomyces cerevisiae) | living cell colonies, all listed microorganisms [1] | effect on cells and DNA molecules seen in the gel [2]
1 | CCO [70% ethanol, ethanol] | 0 | 0 | 0 | did not show any living cell colony | precipitation of the lysate and the DNA
2 | CCCCCCCCCCCCOS(=O)(=O)[O-].[Na+] [sample 3, Sodiumdodecylsulfate] | – | – | – | – | lysis of the cells is observed
